Consider 31 compounds from patent US20100119599A1 (ARCHER PHARMACEUTICALS, INC., priority 2006, published 2010).

The structures appear in SMILES notation.

One assay deals with Aβ1-42. Kind of assay: Measurement of Aβ1-42 in culture medium of 7W WT APP751 CHO cells by ELISA. Format: cell-based, Chinese hamster. Conditions: Cricetulus griseus; Table 1; 5 μM test compound; CHO cells stably transfected with human APP751; culture medium, ELISA; control DMSO; 0 = no detectable amount; read-out: Aβ1-42 (% of control).
A further assay has as its system Aβ1-40. Description: Measurement of Aβ1-40 in culture medium of 7W WT APP751 CHO cells by ELISA. Format: cell-based, Chinese hamster. The following applies: Cricetulus griseus; Table 1; 5 μM test compound; CHO cells stably transfected with human APP751; culture medium, ELISA; control DMSO; 0 = no detectable amount. In general terms: In an ELISA, binding on a coated surface is turned into a signal by an enzyme label.
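Further: 5 µM test compound but RI-coded compounds at 10 µM for 24 hours.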

Take `COc1ccc(C2C(C(=O)OC3CCCC3)=C(C)NC3=C2C(=O)CC(C)(C)C3)c(OC)c1` (centres unmarked) [ST013086, cyclopentyl 4-(2,4-dimethoxyphenyl)-2,7,7-trimethyl-5-oxo-1,4,6,7,8-pentahydroquinoline-3-carboxylate]: the activity at 5 µM in the assay on Aβ1-42 was found to be 73.7%; in the assay on Aβ1-40, 0%.
In the same order, the values of `CC1=C(C(=O)OC(C)C)C(c2ccncc2)C2=C(CCCC2=O)N1` (centres unmarked) [ST013090, methylethyl 2-methyl-5-oxo-4-(4-pyridyl)-1,4,6,7,8-pentahydroquinoline-3-carboxylate] are 87.3% and 41.1%.
For `CC1=C(C(=O)OC2CCCC2)C(c2ccccc2Br)C2=C(CC(C)(C)CC2=O)N1` (centres unmarked) [ST013103, cyclopentyl 4-(2-bromophenyl)-2,7,7-trimethyl-5-oxo-1,4,6,7,8-pentahydroquinoline-3-carboxylate] the same measures were 68.2% and 0%.
In the same order, the values of `COC(=O)C1=C(C)NC2=C(C(=O)CC(c3ccccc3)C2)C1c1ccc(O)c(OC)c1` (centres unmarked) [ST013115, methyl 4-(4-hydroxy-3-methoxyphenyl)-2-methyl-5-oxo-7-phenyl-1,4,6,7,8-pentahydroquinoline-3-carboxylate] are 65.7% and 94.7%.
Regarding `COC(=O)C1=C(C)NC2=C(C(=O)CC(c3ccccc3)C2)C1c1cc(OC)ccc1OC` (centres unmarked) [ST013117, methyl 4-(2,5-dimethoxyphenyl)-2-methyl-5-oxo-7-phenyl-1,4,6,7,8-pentahydroquinoline-3-carboxylate], the activity at 5 µM with Aβ1-42 turned out to be 46.1%; in the assay on Aβ1-40, 22.4%.
For `CCN(CC)c1ccc(C2C(C(=O)OC)=C(C)NC3=C2C(=O)CC(c2ccccc2)C3)cc1` (centres unmarked) [ST013129, methyl 4-[4-(diethylamino)phenyl]-2-methyl-5-oxo-7-phenyl-1,4,6,7,8-pentahydroquinoline-3-carboxylate] the same measures were 90.6% and 64.3%.
For `COc1ccc(C2C(C(=O)OC3CCCC3)=C(C)NC3=C2C(=O)CCC3)cc1Br` (centres unmarked) [ST013137, cyclopentyl 4-(3-bromo-4-methoxyphenyl)-2-methyl-5-oxo-1,4,6,7,8-pentahydroquinoline-3-carboxylate] the same measures were 30% and 18.7%.
In the same order, the values of `COc1ccc(C2C(C(=O)OCc3ccccc3)=C(C)NC3=C2C(=O)CCC3)cc1OC` (centres unmarked) [ST013138, phenylmethyl 4-(3,4-dimethoxyphenyl)-2-methyl-5-oxo-1,4,6,7,8-pentahydroquinoline-3-carboxylate] are 56.8% and 69.7%.
On to `COC(=O)C1=C(C)NC2=C(C(=O)CCC2)C1c1cccc(OC)c1OC` (centres unmarked) [ST013140, methyl 4-(2,3-dimethoxyphenyl)-2-methyl-5-oxo-1,4,6,7,8-pentahydroquinoline-3-carboxylate], for which the activity at 5 µM came out at 51.1% with Aβ1-42 and 96% in the assay with Aβ1-40.
For `COC(=O)C1=C(C)NC2=C(C(=O)CCC2)C1c1cc(Br)c(O)c(OC)c1` (centres unmarked) [ST013141, methyl 4-(3-bromo-4-hydroxy-5-methoxyphenyl)-2-methyl-5-oxo-1,4,6,7,8-pentahydroquinoline-3-carboxylate] the same measures were 23.7% and 89.7%.
In the same order, the values of `COC(=O)C1=C(C)NC2=C(C(=O)CC(C)(C)C2)C1c1cccc(Br)c1` (centres unmarked) [ST013145, methyl 4-(3-bromophenyl)-2,7,7-trimethyl-5-oxo-1,4,6,7,8-pentahydroquinoline-3-carboxylate] are 43.3% and 13.9%.
For `COC(=O)C1=C(C)NC2=C(C(=O)CCC2)C1c1ccc(OC)c(OC)c1OC` (centres unmarked) [ST013147, methyl 2-methyl-5-oxo-4-(2,3,4-trimethoxyphenyl)-1,4,6,7,8-pentahydroquinoline-3-carboxylate] the same measures were 45.4% and 72%.
Consider `CCOC(=O)C1=C(C)NC2=C(C(=O)CCC2)C1c1cccc(O)c1` (centres unmarked) [ST013148, ethyl 4-(3-hydroxyphenyl)-2-methyl-5-oxo-1,4,6,7,8-pentahydroquinoline-3-carboxylate], for which the activity at 5 µM is 49.9% with Aβ1-42 and 66.1% with Aβ1-40.
In the same order, the values of `COC(=O)C1=C(C)NC2=C(C(=O)CC(C)(C)C2)C1c1cccc(Cl)c1Cl` (centres unmarked) [ST013151, methyl 4-(2,3-dichlorophenyl)-2,7,7-trimethyl-5-oxo-1,4,6,7,8-pentahydroquinoline-3-carboxylate] are 61.6% and 52.1%.
For `CCCCCOC(=O)C1=C(C)NC2=C(C(=O)CCC2)C1c1cccc(Cl)c1` (centres unmarked) [ST013152, pentyl 4-(3-chlorophenyl)-2-methyl-5-oxo-1,4,6,7,8-pentahydroquinoline-3-carboxylate] the same measures were 33.2% and 22%.
Take `COC(=O)C1=C(C)NC2=C(C(=O)CCC2)C1c1cccc(OC)c1` (centres unmarked) [ST013153, methyl 4-(3-methoxyphenyl)-2-methyl-5-oxo-1,4,6,7,8-pentahydroquinoline-3-carboxylate]: the activity at 5 µM in the assay with Aβ1-42 was 66.3%; with Aβ1-40, 91.4%.
In the same order, the values of `CC1=C(C(=O)OC2CCCC2)C(c2cccc(Cl)c2)C2=C(CCCC2=O)N1` (centres unmarked) [ST013156, cyclopentyl 4-(3-chlorophenyl)-2-methyl-5-oxo-1,4,6,7,8-pentahydroquinoline-3-carboxylate] are 13.7% and 0%.
As for `CCOC(=O)C1=C(C)NC2=C(C(=O)CCC2)C1c1ccc(O)c(OCC)c1` (centres unmarked) [ST013158, ethyl 4-(3-ethoxy-4-hydroxyphenyl)-2-methyl-5-oxo-1,4,6,7,8-pentahydroquinoline-3-carboxylate], the results for the activity at 5 µM in the assay on Aβ1-42 and in the assay on Aβ1-40 were 67.8% and 75%, respectively.
For `CCOC(=O)C1=C(C)NC2=C(C(=O)CCC2)C1c1cccc(F)c1` (centres unmarked) [ST013162, ethyl 4-(3-fluorophenyl)-2-methyl-5-oxo-1,4,6,7,8-pentahydroquinoline-3-carboxylate] the same measures were 36.3% and 33.4%.
For `CCCCCOC(=O)C1=C(C)NC2=C(C(=O)CCC2)C1c1cc(Br)c(O)c(OC)c1` (centres unmarked) [ST013170, pentyl 4-(3-bromo-4-hydroxy-5-methoxyphenyl)-2-methyl-5-oxo-1,4,6,7,8-pentahydroquinoline-3-carboxylate] the same measures were 49.8% and 62.8%.
In the same order, the values of `CCOC(=O)C1=C(C)NC2=C(C(=O)CCC2)C1c1ccc(C(=O)OC)cc1` (centres unmarked) [ST013173, methyl 4-[3-(ethoxycarbonyl)-2-methyl-5-oxo-4-1,4,6,7,8-pentahydroquinolyl]benzoate] are 78.1% and 39.2%.
For `CC1=C(C(=O)OC(C)C)C(c2cccc(O)c2)C2=C(CCCC2=O)N1` (centres unmarked) [ST013174, methylethyl 4-(3-hydroxyphenyl)-2-methyl-5-oxo-1,4,6,7,8-pentahydroquinoline-3-carboxylate], the activity at 5 µM in the assay on Aβ1-42 turned out to be 73.1%; in the assay with Aβ1-40, 34.3%.
In the same order, the values of `C=CCOC(=O)C1=C(C)NC2=C(C(=O)CCC2)C1c1ccc(OCCC)c(OC)c1` (centres unmarked) [ST013183, prop-2-enyl 4-(3-methoxy-4-propoxyphenyl)-2-methyl-5-oxo-1,4,6,7,8-pentahydroquinoline-3-carboxylate] are 66.3% and 78.7%.
With `CCOC(=O)C1=C(C)NC2=C(C(=O)CC(C)(C)C2)C1c1cccc(OC)c1OC` (centres unmarked) [ST013184, ethyl 4-(2,3-dimethoxyphenyl)-2,7,7-trimethyl-5-oxo-1,4,6,7,8-pentahydroquinoline-3-carboxylate], the activity at 5 µM with Aβ1-42 was determined as 60.3%; in the assay on Aβ1-40, 73.7%.
For `CC1=C(C(=O)OC2CCCCC2)C(c2cccc(Cl)c2Cl)C2=C(CCCC2=O)N1` (centres unmarked) [ST013188, cyclohexyl 4-(2,3-dichlorophenyl)-2-methyl-5-oxo-1,4,6,7,8-pentahydroquinoline-3-carboxylate] the same measures were 47.1% and 0%.
In the same order, the values of `CCc1ccc(C2C(C(=O)OC(C)C)=C(C)NC3=C2C(=O)CCC3)cc1` (centres unmarked) [ST013191, methylethyl 4-(4-ethylphenyl)-2-methyl-5-oxo-1,4,6,7,8-pentahydroquinoline-3-carboxylate] are 98% and 33.4%.
For `CC(=O)Oc1ccc(C2C(C(=O)OC(C)C)=C(C)NC3=C2C(=O)CCC3)cc1` (centres unmarked) [ST013192, 4-{2-methyl-3-[(methylethyl)oxycarbonyl]-5-oxo-4-1,4,6,7,8-pentahydroquinolyl} phenyl acetate], the activity at 5 µM in the assay on Aβ1-42 was determined as 82.5%; in the assay with Aβ1-40 it was 55.5%.
In the case of `C=CCOC(=O)C1=C(C)NC2=C(C(=O)CCC2)C1c1cccc(OC)c1` (centres unmarked) [ST013199, prop-2-enyl 4-(3-methoxyphenyl)-2-methyl-5-oxo-1,4,6,7,8-pentahydroquinoline-3-carboxylate], the activity at 5 µM in the assay on Aβ1-42 is 86.7%; in the assay with Aβ1-40 it was 68.5%.
`CCCOC(=O)C1=C(C)NC2=C(C(=O)CC(C)(C)C2)C1c1cccc(Cl)c1Cl` (centres unmarked) [ST013206, propyl 4-(2,3-dichiorophenyl)-2,7,7-trimethyl-5-oxo-1,4,6,7,8-pentahydroquinoline-3-carboxylate]: the activity at 5 µM in the assay with Aβ1-42 stood at 62.5%; in the assay on Aβ1-40 it was 0%.
In the same order, the values of `CCCCOC(=O)C1=C(C)NC2=C(C(=O)CC(C)(C)C2)C1c1cccc2ccccc12` (centres unmarked) [ST013208, butyl 2,7,7-tnmethyl-4-naphthyl-5-oxo-1,4,6,7,8-pentahydroquinoline-3-carboxylate] are 20.2% and 0%.
With `CC1=C(C(=O)OCc2ccccc2)C(c2ccc(N(C)C)cc2)C2=C(CCCC2=O)N1` (centres unmarked) [ST013212, phenylmethyl 4-[4-(dimethylamino)phenyl]-2-methyl-5-oxo-1,4,6,7,8-pentahydroquinoline-3-carboxylate], the activity at 5 µM with Aβ1-42 was determined as 93.7%; in the assay on Aβ1-40, 50.8%.
